In this test the target is T1, C-C chemokine receptor type 6 (Homo sapiens, UniProt P51684).
T1 sequence (P51684 whole entry): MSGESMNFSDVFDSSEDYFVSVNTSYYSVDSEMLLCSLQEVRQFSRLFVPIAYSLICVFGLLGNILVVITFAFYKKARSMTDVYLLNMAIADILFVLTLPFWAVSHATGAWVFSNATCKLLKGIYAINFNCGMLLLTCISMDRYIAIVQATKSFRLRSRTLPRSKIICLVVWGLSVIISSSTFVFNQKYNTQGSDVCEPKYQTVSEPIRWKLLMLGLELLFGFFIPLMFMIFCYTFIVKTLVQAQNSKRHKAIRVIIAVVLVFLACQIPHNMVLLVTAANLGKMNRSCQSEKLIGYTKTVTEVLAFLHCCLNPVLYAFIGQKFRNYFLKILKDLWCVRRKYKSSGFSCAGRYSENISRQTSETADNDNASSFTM
Put plainly: analog antagonism of CCR6 beta-arrestin signaling – cell-based, luminescent beta-arrestin readout, SAR follow-up (AID 540334).

In general, IC50 refers to the concentration that gives 50% inhibition. A lower IC50 goes with higher potency. `OCC12C=CC(O1)c1c2c(O)n(-c2ccccc2-c2ccccc2)c1O` (configuration not stated) [7-(hydroxymethyl)-2-(2-phenylphenyl)-4,7a-dihydro-3aH-octahydro-1H-4,7-epoxyisoindole-1,3-dione] displayed an IC50 of more than 66.6 µM.

For the compound `CN1C(=O)C(C2CC(c3ccc(Cl)cc3)N=N2)C(=O)N(C)C1=O` (configuration not stated) [SMR000439471], the IC50 was determined as 5.84 µM.

The values are drawn from BindingDB's records for doi:10.7270/Q2QJ7FTF (Burnham Center For Chemical Genomics, 2011).
